According to paper PMC10492782, “Exploiting the aggregation propensity of beta-lactamases to design inhibitors that induce enzyme misfolding” (Nature Communications, 2023):

Columns and labels:
E. coli TEM104 = details: checkerboard, strain containing TEM1 / TEM-1; FICI below 0.5 = synergy
Experimental: (§1) To quantify the synergy between these four peptides and penicillin G, we performed a so-called checkerboard assay, which allows us to compare the activity of two test compounds co-incubated (here peptide and a beta-lactam antibiotic), to their individual activities in isolation. […] We evaluated the synergy of the peptides with penicillin G in clinical E. coli isolates carrying the TEM (Fig. 3D) or SHV enzymes (Fig. 3E). […] The list of strains included some that harbored only TEM or SHV, but others contained additional Ambler Class A (CTX-M or OXA) or Class B (VIM and NDM) beta-lactamases.
For the analysis of synergy between the peptides and other antibiotics, a checkerboard assay was performed. Based on the MICs of the selected peptides, a checkerboard assay was designed to define their FICIs (Fractional Inhibitory Concentration Index) in combinations against different clinical isolates[53],[54]. Briefly, a total volume of 100 μL of Mueller–Hinton broth was distributed into each well of the 96-well plates. The first compound (peptide) of the combination was serially diluted vertically (128, 64, 32, 16, 8, 4, 2, 0 μg/mL) while the other drug (Beta-lactam or Kanamycin) was diluted horizontally in a 96-well plate (from 3200 to 3 μg/ mL). The total volume of each microtiter well was inoculated with 100 μL of MHB containing 1 × 10^6 CFU/mL bacteria. The plates were incubated at 37 °C for 24 h under aerobic conditions without shaking. Calculation of the FICI is used to analyze the results of the checkerboard assay by estimating the degree of synergistic effect. FICI is calculated as the sum of the individual fractional inhibitory concentrations (FICs) for each drug (where MIC A and MIC B denote the MIC of each drug alone, and MIC AA+B and MIC BA+B denote the concentrations of A and B in the drug combination). FICI = (MIC AA+B/MIC A) + (MIC BA+B/MIC B). With FICI ≤ 0.5, the combination of antibiotics is considered as a synergistic effect, 0.5 < FICI ≤ 1 indicates additivity, FICI > 1 indicates indifference.

human erythrocytes = test: Hemolysis; details: 2 h at 37 °C, normalized to 1% triton
Experimental: Fig. 7 Evaluation of in vivo use of peptides that induce the aggregation of TEM beta-lactamase. A Lysis of human erythrocytes (hemolysis) was assessed in the presence of the indicated concentrations of TEM3.2 for 2 h at 37 °C, and normalized to the value obtained with 1% of the detergent triton. […] B Cell viability using the CellTiter Blue assay of HeLa cells treated for 24 h with the indicated concentrations TEM 3.2 at 37 °C. […] DAPI (4’,6-diamidino-2-phenylindole) is blue, while CellMask is red. D Experimental workflow of the in vivo model used in this study. E–G Bacterial load of indicated organs of female C57BL/6JAX mice with a urinary tract infection with E. coli strain UZ_TEM104, treated with 30 mg/kg penicillin (oral) as well 10 mg/kg tazobactam (oral) or 10 mg/kg TEM3.2 via the indicated treatment route. IV intravenous, IP intraperitoneal, SC subcutaneously. The data shown is from a single experiment with 12 animals for each group. The result for each animal is shown as a dot. […] The statistically significant differences were determined using ANOVA, followed by Dunnett’s multiple comparison test. […] Source data are provided as a Source Data file.

[1] = tested on: primary mouse cortical neurons; details: 24 h, 400 to 6.25 µg/mL
Experimental: (§2) The Cell Titer Blue assay was performed to evaluate the cell viability according to the instructions of the manufacturer (Promega, USA). The peptide treatments were done in DMEM medium without serum. Briefly, cells were seeded to approximately 20,000 mammalian cells per well in a 96-well flat-bottom plate (BD Biosciences 353075) and incubated at 37 °C with 5% CO2 and 90% humidity. Peptides were diluted in cell medium, and cells were treated for 24 h. 20 μL of the CellTiter Blue reagent was added to each well and the plate was incubated for 1 h at 37 °C. The fluorescence was measured at 590 nm by exciting at 560 nm with a ClarioStar plate reader (BMG Labtech, Germany).
(§3) Khodaparast et al Supplementary data
(§4) Supplementary Figure 12: Cell viability assays on mammalian cells using the CellTiter Blue assay, plotted as relative values compared to vehicle. The colours of the bars show the concentrations indicated in the legends in µg/mL, ranging from 400 to 6.25 µg/mL. The dots indicate individual measurements on independent wells of cells (4 repeats), the bars

HEK293 = details: 24 h, 400 to 6.25 µg/mL
Experimental: as §2, §3, §4

NCI-H441 = details: 24 h, 400 to 12.5 µg/mL
Experimental: as §2, §3, §4

E. coli SHV11 = test: Checkerboard assay (FICI); type: cell-based, Escherichia coli; details: strain containing SHV-11, FICI below 0.5 = synergy
Experimental: as §1
For the analysis of synergy between the peptides and other antibiotics, a checkerboard assay was performed. Based on the MICs of the selected peptides, a checkerboard assay was designed to define their FICIs (Fractional Inhibitory Concentration Index) in combinations against different clinical isolates[53],[54]. Briefly, a total volume of 100 μL of Mueller–Hinton broth was distributed into each well of the 96-well plates. […] FICI is calculated as the sum of the individual fractional inhibitory concentrations (FICs) for each drug (where MIC A and MIC B denote the MIC of each drug alone, and MIC AA+B and MIC BA+B denote the concentrations of A and B in the drug combination). […]

[2] = tested on: E. coli K12 MG1655 overexpressing GFP; test: Structured illumination microscopy of strains expressing GFP or FP fusions; type: cell-based, Escherichia coli; details: strains stably expressing GFP or proteins fused to FPs treated with TEM3.2
Text: Fig. 5 Induction of aggregation in cells. […] A single representative image is shown. […] A single representative image is shown. C SIM and brightfield images as in A, but for E. coli ATCC strain. […] A single representative image is shown. […] A single representative blot is shown. […] The corrected P-values were 0.6091, 0.0029, 0.0027, <0.0001, and 0.9992, from left to right. […] Statistics exactly as in E, but from 3 independent experiments. The corrected P-values were 0.8753, 0.9796, 0.0001, 0.0003, and 0.0003, from left to right. Source data are provided as a Source Data file.
Bacteria were fixed by adding 2.5% paraformaldehyde and 0.04 % glutaraldehyde (final concentrations) to the culture media, followed by incubation at room temperature for 15 min and 30 min on ice. Bacteria were then washed in PBS and resuspended in GTE buffer (50 mM glucose, 25 mM Tris, and 10 mM EDTA, pH 8.0). Directly preceding microscopic analysis, cells were transferred to a glass slide and covered with a coverslip. Imaging was performed using a Zeiss Elyra S.1 system in the VIB BioImaging Core at KU Leuven.

Substance: Ac-RLTAFLHNRRPRLTAFLRQRR-NH2 [TEM3.2]
- synergy with penicillin G (in words) (E. coli TEM104): showed synergy in both strains
- hemolysis (in words) (human erythrocytes): not hemolytic to human erythrocytes
- cytotoxicity, Cell Titer Blue (in words) [1]: not cytotoxic
- cytotoxicity, Cell Titer Blue (in words) (HEK293): not cytotoxic
- cytotoxicity, Cell Titer Blue (in words) (NCI-H441): not cytotoxic
- synergy with penicillin G (in words) (E. coli SHV11): showed synergy in both strains
- induced aggregation of unrelated fluorescent proteins (in words) [2]: did not observe a similar induced aggregation of the fluorescent proteins
